We go through 15 compounds from PubChem BioAssay (NCI).

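Dose response: 5 concentrations. Exposure: 48 h. Format: 96-well plates. Endpoint: linear interpolation; highest concentration if not reached. The concentration for 50% growth inhibition is given as GI50. Definition used: TGI = concentration required for complete inhibition of growth.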 Bounds are passed on as bounds.

Common to all, as to test: NCI-60 cell line screen, 48 h
Assay [1] deals with ACHN renal.
Assay [2] has as its system COLO 205 colon.
Assay [3] relates to EKVX NSCLC.
Assay [4] relates to HCT-116 colon.
In assay [5] the test system is KM12 colon.
Assay [6] deals with SF-539 CNS.
The subject of assay [7] is SNB-19 CNS.
Assay [8] concerns UACC-257 melanoma.
Assay [9] relates to MDA-MB-435.
The subject of assay [10] is T-47D breast.

For `CCOC(=O)C(=O)C=P(c1ccccc1)(c1ccccc1)c1ccccc1`, the TGI in assay [1], in assay [2], in assay [3], in [4], in assay [5] and in assay [6] was above 100 µM each time. The TGI in assay [7] and in [8] was above 100 µM throughout.
For `CCOC(=O)Cn1c2ccccc2c(=O)c2cc(C)c(C)c(C#N)c21`, the TGI in assay [1], in [2], in assay [3], in [4], in assay [6] and in assay [7] was above 100 µM in each case. In [8], this compound registered a TGI above 100 µM.
`CC(CCC[C@H](C)CO)[C@H]1[C@@H](O)C(O)C2[C@@H]3C[C@@H](O)C4(O)C[C@@H](O)CC[C@]4(C)C3CC[C@@]21C` (stereo partly drawn): the TGI in assay [1], in assay [2], in [3], in assay [4], in [5] and in assay [6] was above 100 µM in each case. Also, the TGI in assay [7] and in assay [8] was above 100 µM in each case.
Take `NCCSc1cc(O)c2c(c1N)C(=O)c1ccccc1C2=O`: the TGI in assay [1], in assay [3], in assay [4], in [5], in assay [6] and in assay [7] was above 100 µM each time.
Take `COc1ccc(OC)c(NCC(=O)Nn2cnc3ccc(S(=O)(=O)Nc4cc(OC)ccc4OC)cc3c2=O)c1`: the TGI in assay [1], in assay [2], in assay [3], in assay [4], in assay [5] and in assay [9] was above 100 µM in each case. Besides, the TGI in assay [6], in [7] and in assay [8] was above 100 µM each time.
For the compound `Cc1cc(S(=O)(=O)N2CCNNC2=O)c(S)cc1Cl`, the TGI in [1], in assay [2], in assay [3], in assay [5], in assay [9] and in [6] was above 100 µM each time. In addition, the TGI in assay [7] and in assay [8] was above 100 µM each time.
As for `CC1CN=C(NS(=O)(=O)c2cc(C(=O)Nc3ccc(Cl)cc3)c(Cl)cc2S)NN1` (stereo not drawn), the TGI was above 100 µM in assay [1]; above 100 µM in [2]; above 100 µM in [3]; above 100 µM in assay [4]; 97.1 µM in assay [5]; 73.1 µM in [9]. The TGI in [6] was 81.8 µM; in assay [7], above 100 µM; in assay [8], above 100 µM.
Turning to `Nc1ccc2[nH]c(-c3cccc(C(F)(F)F)c3)cc(=O)c2c1`, the TGI was above 100 µM in assay [1]; above 100 µM in assay [2]; above 100 µM in assay [3]; above 100 µM in assay [4]; above 100 µM in assay [5]; 88.6 µM in assay [9]. Further, the TGI is 53 µM in [6], above 100 µM in assay [7] and above 100 µM in assay [8]. Further, the GI50 in [4] was 52 µM.
On to `COc1c(C)cc2c(C(C)C)c(O)c(O)c(C=O)c2c1O`, for which the TGI in assay [1] is 93 µM; in assay [2] it was 36.3 µM; in assay [3], 95.1 µM; in assay [4] it was 52 µM; in assay [5], 56.1 µM; in assay [6] it was 37.6 µM. Also, the TGI in assay [7] is above 100 µM; in assay [8], 59.4 µM.
As for `Clc1cccc(-c2sc(-c3ccsc3)cc2Cc2ccsc2)c1`, the TGI in assay [2], in assay [3], in assay [5], in assay [9], in assay [10] and in [8] was above 10 µM each time.
Regarding `CC(=O)Nc1ccc2nc(-c3ccccn3)c(-c3ccccn3)nc2c1`, the TGI in assay [1], in assay [2], in [3], in [5], in [9] and in assay [6] was above 100 µM in each case. Besides, the TGI in assay [7] and in assay [8] was above 100 µM each time.
For `O=C(CN(C(=O)OC12CC3CC(CC(C3)C1)C2)C(=O)OC12CC3CC(CC(C3)C1)C2)Oc1ccc([N+](=O)[O-])cc1`, the TGI in assay [1], in [2], in assay [3], in [4], in assay [5] and in assay [9] was above 100 µM throughout. Moreover, the TGI in assay [6], in assay [7] and in assay [8] was above 100 µM in each case.
For `COc1cc(OC)cc(-c2ccc(-c3ccc(C(=N)N)cn3)o2)c1`, the GI50 in assay [1] is 1.71 µM; in [2], 1.62 µM; in assay [5], 1.78 µM; in assay [9] it was 1.55 µM; in [6], 1.55 µM; in [8], 1.76 µM. Also, the TGI in assay [1] stood at 3.16 µM; in assay [2] it was 3.27 µM; in [5], 3.34 µM; in assay [9], 2.99 µM; in assay [6], 2.9 µM; in assay [8] it was 3.3 µM.
Take `N#CCc1c(-c2ccccc2)n(S(=O)(=O)c2ccccc2)c2ccccc12`: the TGI in [1], in assay [2], in assay [4], in [5], in [6] and in assay [7] was above 100 µM throughout. Besides, in assay [8], the TGI was above 100 µM.
In the case of `COC(=O)c1cc(C(=O)OC)c(CC(=O)C(=O)NC2C3CC4CC(C3)CC2C4)nc1CC(=O)C(=O)NC1C2CC3CC(C2)CC1C3` (stereo not drawn), the TGI in assay [1], in assay [2], in assay [3], in assay [4], in assay [5] and in assay [6] was above 100 µM in each case. The TGI in [7] and in assay [8] was above 100 µM in each case.
